Read-outs that look alike come from different tables or passages of the source.

Data set [1] can be described thus: Human microsome stability assay. The format is in vitro ADME. The settings on record: human liver microsomes, 1 μM test compound, 0.5 mg/mL microsomal protein, 37° C., pH 7.4, 0-30 minutes. Summed up: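 Parent compound remaining was measured by LC-MS/MS at 0, 3, 6, 9, 15 and 30 min, following ACN quench. Reactions held 1 μM compound and 0.5 mg/mL human liver microsomal protein in pH 7.4 phosphate buffer at 37 °C, started by NADPH regeneration (1 mM NADP, 1 mM MgCl2); controls lacked NADPH.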
(Liver microsomes are a subcellular fraction often used to study metabolism.)

Data set [2] deals with HBeAg (surrogate marker for cccDNA) in HepDES19 cells. Description: Engineered HepDES19 primary screen assay (HBeAg ELISA). The data set is classed as cell-based, HBV. The settings on record: Hepatitis B virus, HepDES19, 120 h, read-out: IC50 (HBeAg level, HepDES19 primary screen assay), HepDES19 cells, 5 days compound incubation, HBeAg ELISA. Summed up: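 IC50 values come from 4-parameter logistic fits of HBeAg ELISA signal, the cccDNA surrogate, with CCK-8 run in parallel for viability. Compounds at half-log dilutions with 1% DMSO were applied for 5 days at 37 °C to HepDES19 cells previously cultured 8 days without Tet.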
(In general: ELISA stands for enzyme-linked immunosorbent assay.)

In data set [3] the test system is HBsAg in HBV-infected PHH. Description: Cryopreserved primary human hepatocytes (PHH) HBV infection assay, extracellular HBsAg (CLIA). The data set is classed as cell-based. Summed up:
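Cryopreserved PHH were infected with 5.8×10^6 HBV genome equivalents in medium with 4% PEG8000 and 1% DMSO. After 9 days of treatment, extracellular HBsAg was measured by CLIA, and IC50 was derived from a 4-parameter logistic fit.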

Setting [4] is: Hepatitis B virus, Hepatocyte, 216 h, read-out: HBsAg IC50, Cryopreserved PHH infected with HBV, 9 days post-compound treatment, extracellular HBsAg.

For orientation: IC50 means the concentration needed to halve the response being measured. Regarding `O=C(O)[C@H]1CCN(C(=O)COc2cc(C(F)(F)F)ccc2-c2cc(=O)c3cccc(Cl)c3o2)C1` [Example A083, (3S)-1-[2-[2-(8-chloro-4-oxo-chromen-2-yl)-5-(trifluoromethyl)phenoxy]acetyl]pyrrolidine-3-carboxylic acid], the “Clearance of Human microsome” value in data set [1] is on record as 6.15 mL/min/kg. The results for the IC50 in data set [2] and in data set [3] (setting [4]) were 5570 nM and 9740 nM, respectively.
Take `O=C(CCOc1cc(C(F)(F)F)ccc1-c1cc(=O)c2cccc(Cl)c2o1)NS(=O)(=O)C1CC1` [Example A084, 3-[2-(8-chloro-4-oxo-chromen-2-yl)-5-(trifluoromethyl)phenoxy]-N-cyclopropylsulfonyl-propanamide]: in data set [1], the “Clearance of Human microsome” value came out at 7.5 mL/min/kg. Also, the values for the IC50 in data set [2] and in data set [3] (setting [4]) were 1450 nM and 1020 nM, respectively.
On the same counts, the results for `O=C(O)[C@H](COc1cc(C(F)(F)F)ccc1-c1cc(=O)c2cccc(Cl)c2o1)NS(=O)(=O)C1CC1` [Example A096, (2S)-3-[2-(8-chloro-4-oxo-chromen-2-yl)-5-(trifluoromethyl)phenoxy]-2-(cyclopropylsulfonylamino)propanoic acid] are 6.15 mL/min/kg, 114 nM and 1240 nM.
On the same counts, the results for `Cc1ccc(S(=O)(=O)N[C@@H](COc2cc(C(F)(F)F)ccc2-c2cc(=O)c3cccc(Cl)c3o2)C(=O)O)cc1` [Example A097, (2S)-3-[2-(8-chloro-4-oxo-chromen-2-yl)-5-(trifluoromethyl)phenoxy]-2-(p-tolylsulfonylamino)propanoic acid] are 8.78 mL/min/kg, 983 nM and 4030 nM.
On the same counts, the results for `CCNS(=O)(=O)N[C@@H](COc1cc(C(F)(F)F)ccc1-c1cc(=O)c2cccc(Cl)c2o1)C(=O)O` [Example A099, (2S)-3-[2-(8-chloro-4-oxo-chromen-2-yl)-5-(trifluoromethyl)phenoxy]-2-(ethylsulfamoylamino)propanoic acid] are 9.53 mL/min/kg, 66.3 nM and 140 nM.
Take `O=c1cc(-c2ccccc2O[C@H]2C[C@@H](C(=O)O)C2)oc2c(Cl)cccc12` [Example B002-A, cis-3-[2-(8-chloro-4-oxo-chromen-2-yl)phenoxy]cyclobutanecarboxylic acid]: the “Clearance of Human microsome” value in data set [1] amounted to 6.15 mL/min/kg. Further, the IC50 amounted to 162 nM in data set [2] and 2020 nM in data set [3] (setting [4]).
On the same counts, the results for `O=c1cc(-c2ccccc2O[C@H]2C[C@H](C(=O)O)C2)oc2c(Cl)cccc12` [Example B002-B, trans-3-[2-(8-chloro-4-oxo-chromen-2-yl)phenoxy]cyclobutanecarboxylic acid] are 6.15 mL/min/kg, 112 nM and 3350 nM.
On to `O=C(O)C1CC(Oc2cc(C(F)(F)F)ccc2-c2cc(=O)c3cccc(Cl)c3o2)C1` (stereo not drawn) [Example B003, 3-[2-(8-chloro-4-oxo-chromen-2-yl)-5-(trifluoromethyl)phenoxy]cyclobutanecarboxylic acid], for which the “Clearance of Human microsome” value in data set [1] stood at 6.15 mL/min/kg. Besides, the IC50 stood at 468 nM in data set [2] and 4370 nM in data set [3] (setting [4]).
For `COc1cc(-c2cc(=O)c3cccc(Cl)c3o2)c(OC2CC(C(=O)O)C2)cc1Br` (stereo not drawn) [Example B004, 3-[5-bromo-2-(8-chloro-4-oxo-chromen-2-yl)-4-methoxy-phenoxy]cyclobutanecarboxylic acid], in data set [1], the “Clearance of Human microsome” value is 6.15 mL/min/kg. Also, the results for the IC50 in data set [2] and in data set [3] (setting [4]) were 556 nM and 5520 nM, respectively.
On the same counts, the results for `O=C(O)C1CC(Oc2cc(OC(F)(F)F)ccc2-c2cc(=O)c3cccc(Cl)c3o2)C1` (stereo not drawn) [Example B005, 3-[2-(8-chloro-4-oxo-chromen-2-yl)-5-(trifluoromethoxy)phenoxy]cyclobutanecarboxylic acid] are 6.15 mL/min/kg, 219 nM and 6970 nM.
On the same counts, the results for `O=C(O)C1CC(Oc2cc(OC(F)(F)F)c(Br)cc2-c2cc(=O)c3cccc(Cl)c3o2)C1` (stereo not drawn) [Example B007, 3-[4-bromo-2-(8-chloro-4-oxo-chromen-2-yl)-5-(trifluoromethoxy)phenoxy]cyclobutanecarboxylic acid] are 6.15 mL/min/kg, 2310 nM and 2240 nM.
On the same counts, the results for `O=C(O)C1CCC(Oc2cc(Br)ccc2-c2cc(=O)c3cccc(Cl)c3o2)CC1` (stereo not drawn) [Example B010, 4-[5-bromo-2-(8-chloro-4-oxo-chromen-2-yl)phenoxy]cyclohexanecarboxylic acid] are 6.15 mL/min/kg, 2760 nM and 7080 nM.
Turning to `COc1ccc(-c2cc(=O)c3cccc(Cl)c3o2)c(O[C@H]2C[C@@H](C(=O)O)C2)c1` [Example B011-A, Cis-3-[2-(8-chloro-4-oxo-chromen-2-yl)-5-methoxy-phenoxy]cyclobutanecarboxylic acid], in data set [1], the “Clearance of Human microsome” value turned out to be 8.35 mL/min/kg. The values for the IC50 in data set [2] and in data set [3] (setting [4]) were 851 nM and 2320 nM, respectively.
`Cc1cc(-c2cc(=O)c3cccc(Cl)c3o2)c(O[C@H]2C[C@@H](C(=O)O)C2)cc1Cl` [Example B012-A, Cis-3-[5-chloro-2-(8-chloro-4-oxo-chromen-2-yl)-4-methyl-phenoxy]cyclobutanecarboxylic acid]: the “Clearance of Human microsome” value in data set [1] is reported as 6.15 mL/min/kg. Besides, the IC50 in data set [2] was found to be 3270 nM; in data set [3] (read-out: HBsAg IC50, Cryopreserved PHH infected with HBV, 9 days post-compound treatment, extracellular HBsAg) it was 6010 nM.
As to `O=c1cc(-c2ccc(OC(F)(F)F)cc2O[C@H]2C[C@@H](C(=O)O)C2)oc2c(Cl)cccc12` [Example B015-A, Cis-3-[2-(8-chloro-4-oxo-chromen-2-yl)-5-(trifluoromethoxy)phenoxy]cyclobutanecarboxylic acid], in data set [1], the “Clearance of Human microsome” value is listed as 6.15 mL/min/kg. Further, the IC50 in data set [2] worked out at 3790 nM; in data set [3] (setting [4]) it was 2570 nM.
On the same counts, the results for `Cc1ccc(-c2cc(=O)c3cccc(Cl)c3o2)c(O[C@H]2C[C@@H](C(=O)O)C2)c1` [Example B018-A, Cis-3-[2-(8-chloro-4-oxo-chromen-2-yl)-5-methyl-phenoxy]cyclobutanecarboxylic acid] are 6.15 mL/min/kg, 146 nM and 887 nM.
Turning to `O=c1cc(-c2ccccc2O[C@H]2C[C@@H](C(=O)O)C2)oc2c(Br)cccc12` [Example B022-A, Cis-3-[2-(8-bromo-4-oxo-chromen-2-yl)phenoxy]cyclobutanecarboxylic acid], in data set [1], the “Clearance of Human microsome” value is listed as 6.15 mL/min/kg. Besides, the results for the IC50 in data set [2] and in data set [3] (setting [4]) were 112 nM and 3830 nM, respectively.
On the same counts, the results for `O=c1cc(-c2cc(C(F)(F)F)c(Br)cc2O[C@H]2C[C@H](C(=O)O)C2)oc2c(Cl)cccc12` [Example B024, Trans-3-[5-bromo-2-(8-chloro-4-oxo-chromen-2-yl)-4-(trifluoromethyl)phenoxy]cyclobutanecarboxylic acid] are 7.41 mL/min/kg, 1640 nM and 6840 nM.
Consider `O=c1cc(-c2ccccc2OC[C@H]2C[C@@H](C(=O)O)C2)oc2c(Cl)cccc12` [Example B026-A, Cis-3-[[2-(8-chloro-4-oxo-chromen-2-yl)phenoxy]methyl]cyclobutanecarboxylic acid], for which the “Clearance of Human microsome” value in data set [1] was determined as 6.15 mL/min/kg. Also, the IC50 came to 39.4 nM in data set [2] and 4970 nM in data set [3] (setting [4]).
On the same counts, the results for `O=c1cc(-c2ccccc2OC[C@H]2C[C@H](C(=O)O)C2)oc2c(Cl)cccc12` [Example B026-B, Trans-3-[[2-(8-chloro-4-oxo-chromen-2-yl)phenoxy]methyl]cyclobutanecarboxylic acid] are 6.15 mL/min/kg, 138 nM and 3190 nM.
On the same counts, the results for `O=c1cc(-c2ccc(C3CC3)cc2O[C@H]2C[C@@H](C(=O)O)C2)oc2c(Cl)cccc12` [Example B035-A, cis-3-[2-(8-chloro-4-oxo-chromen-2-yl)-5-cyclopropyl-phenoxy]cyclobutanecarboxylic acid] are 8.46 mL/min/kg, 160 nM and 1460 nM.
Regarding `O=c1cc(-c2ccc(Br)cc2O[C@H]2C[C@@H](C(=O)O)C2)oc2c(Cl)ccc(O)c12` [Example B036-A, Cis-3-[5-bromo-2-(8-chloro-5-hydroxy-4-oxo-chromen-2-yl)phenoxy]cyclobutanecarboxylic acid], the “Clearance of Human microsome” value in data set [1] was 6.15 mL/min/kg. Moreover, the IC50 in data set [2] was 926 nM; in data set [3] (setting [4]), 9500 nM.
Take `Cc1ccc(-c2cc(=O)c3c(O)ccc(Cl)c3o2)c(O[C@H]2C[C@@H](C(=O)O)C2)c1` [Example B037-A, Cis-3-[2-(8-chloro-5-hydroxy-4-oxo-chromen-2-yl)-5-methyl-phenoxy]cyclobutanecarboxylic acid]: the “Clearance of Human microsome” value in data set [1] is 9.86 mL/min/kg. Further, the IC50 in data set [2] stood at 4430 nM; in data set [3] (setting [4]), 2040 nM.
